Source: ChEMBL document CHEMBL5370619, “Targeting the Tyrosine Kinase 2 (TYK2) Pseudokinase Domain: Discovery of the Selective TYK2 Inhibitor ABBV-712” (J Med Chem, 2023)
≈ marks a conversion by molar mass, not a printed value.

Legend:
[1] = molecular target: Tyrosine-protein kinase JAK1 (Homo sapiens, UniProt P23458); test: Inhibition of JAK1 in human TF-1 cells assessed as reduction in IL-6 induced STAT3 phosphorylation at Tyr705 residue preincubated for 30 mins followed by IL-6 stimulation and measured after 30 mins by AlphaScreen assay; assay type: cell-based
Chain of Tyrosine-protein kinase JAK1 (P23458 whole entry): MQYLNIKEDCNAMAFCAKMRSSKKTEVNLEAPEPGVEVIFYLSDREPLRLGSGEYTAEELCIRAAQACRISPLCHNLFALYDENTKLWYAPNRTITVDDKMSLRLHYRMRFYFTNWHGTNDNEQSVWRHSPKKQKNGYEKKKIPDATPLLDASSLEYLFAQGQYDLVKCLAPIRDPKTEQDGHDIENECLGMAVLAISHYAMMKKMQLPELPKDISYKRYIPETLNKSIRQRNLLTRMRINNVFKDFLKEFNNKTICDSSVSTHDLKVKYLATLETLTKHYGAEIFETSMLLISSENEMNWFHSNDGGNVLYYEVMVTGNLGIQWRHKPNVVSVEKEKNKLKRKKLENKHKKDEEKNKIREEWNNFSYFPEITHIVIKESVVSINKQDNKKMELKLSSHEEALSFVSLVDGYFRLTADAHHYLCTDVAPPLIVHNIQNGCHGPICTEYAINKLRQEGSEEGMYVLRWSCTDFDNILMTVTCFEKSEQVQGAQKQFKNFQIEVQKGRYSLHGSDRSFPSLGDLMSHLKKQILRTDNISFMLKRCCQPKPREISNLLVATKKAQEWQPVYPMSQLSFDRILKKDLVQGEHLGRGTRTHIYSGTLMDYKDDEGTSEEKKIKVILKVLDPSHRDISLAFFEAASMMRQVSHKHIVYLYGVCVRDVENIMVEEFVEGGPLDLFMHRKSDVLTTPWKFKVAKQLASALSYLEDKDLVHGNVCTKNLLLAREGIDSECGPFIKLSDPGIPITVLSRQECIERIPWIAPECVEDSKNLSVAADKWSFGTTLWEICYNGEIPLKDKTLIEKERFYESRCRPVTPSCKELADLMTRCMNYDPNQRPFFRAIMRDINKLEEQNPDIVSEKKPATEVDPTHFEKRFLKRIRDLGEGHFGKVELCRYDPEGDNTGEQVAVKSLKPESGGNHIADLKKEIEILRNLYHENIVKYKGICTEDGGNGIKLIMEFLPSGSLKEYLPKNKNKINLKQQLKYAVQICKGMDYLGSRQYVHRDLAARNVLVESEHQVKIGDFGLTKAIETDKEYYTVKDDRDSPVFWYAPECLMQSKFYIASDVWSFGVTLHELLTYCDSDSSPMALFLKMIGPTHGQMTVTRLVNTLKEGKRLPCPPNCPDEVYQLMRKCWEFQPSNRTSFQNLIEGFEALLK

[2] = Volume of distribution at steady state in rat at 1 mg/kg, iv or 1 mg/kg,po; assay type: ADME, organism-based; conditions: in vivo, read-out: Vdss
[3] = In vivo inhibition of TYK2 in IL-12/IL-18 induced C57/B6 mouse model assessed as reduction in serum IFN-gamma production at 600 mg/kg,po pretreated for 30 mins prior to IL-12/IL-18 challenge and measured after 4 hrs by MSD assay; assay type: functional; conditions: C57/B6, 4.5 h, time 270 min
[4] = Half life in cynomolgus monkey at 1 mg/kg, iv; assay type: ADME, organism-based, Macaca fascicularis; conditions: in vivo
[5] = molecular target: T1, Tyrosine-protein kinase JAK3 (Homo sapiens, UniProt P52333); test: Inhibition of JAK3 in human T-blast cells assessed as reduction in IL-2 induced STAT5 phosphorylation preincubated for 30 mins followed by IL-2 stimulation and measured after 20 mins by AlphaScreen assay; assay type: cell-based, T-blast cell
T1 sequence (P52333 whole entry): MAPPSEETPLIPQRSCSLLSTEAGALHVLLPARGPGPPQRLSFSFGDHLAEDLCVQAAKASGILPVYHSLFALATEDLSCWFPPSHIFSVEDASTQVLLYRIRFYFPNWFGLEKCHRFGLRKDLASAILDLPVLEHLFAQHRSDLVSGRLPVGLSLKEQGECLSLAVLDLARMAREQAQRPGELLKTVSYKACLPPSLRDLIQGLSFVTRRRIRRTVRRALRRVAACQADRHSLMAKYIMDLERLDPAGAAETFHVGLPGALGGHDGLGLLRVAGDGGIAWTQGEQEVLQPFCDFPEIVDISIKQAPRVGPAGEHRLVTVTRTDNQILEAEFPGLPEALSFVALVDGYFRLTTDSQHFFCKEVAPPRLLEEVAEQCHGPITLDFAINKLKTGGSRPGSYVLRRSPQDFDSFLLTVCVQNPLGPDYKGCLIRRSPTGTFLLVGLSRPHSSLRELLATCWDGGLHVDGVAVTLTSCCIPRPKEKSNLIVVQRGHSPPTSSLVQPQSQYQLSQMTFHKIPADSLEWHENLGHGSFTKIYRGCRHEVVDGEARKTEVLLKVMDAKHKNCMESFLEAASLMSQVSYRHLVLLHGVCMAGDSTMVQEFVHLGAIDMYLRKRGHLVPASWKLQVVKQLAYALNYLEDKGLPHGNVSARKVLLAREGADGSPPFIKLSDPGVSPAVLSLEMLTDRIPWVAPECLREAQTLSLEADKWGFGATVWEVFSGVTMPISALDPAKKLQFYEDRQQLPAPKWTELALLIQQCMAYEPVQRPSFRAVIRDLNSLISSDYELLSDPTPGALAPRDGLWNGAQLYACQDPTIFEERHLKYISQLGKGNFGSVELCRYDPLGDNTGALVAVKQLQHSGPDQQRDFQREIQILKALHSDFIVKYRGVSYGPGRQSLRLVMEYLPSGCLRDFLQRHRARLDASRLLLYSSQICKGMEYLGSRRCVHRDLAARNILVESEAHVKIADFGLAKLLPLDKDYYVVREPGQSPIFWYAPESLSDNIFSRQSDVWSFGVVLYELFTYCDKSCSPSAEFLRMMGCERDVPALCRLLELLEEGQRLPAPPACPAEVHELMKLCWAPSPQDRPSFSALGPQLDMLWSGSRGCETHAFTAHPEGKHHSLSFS

Mus musculus = test: Anti-inflammatory activity in po dosed B10.RII mouse model of mouse IL-23 mini circle induced psoriasiform dermatitis assessed as decrease in ear thickness measured at 1 to 100 ng/ml of whole blood drug exposure level measured after 30 mins; assay type: functional, organism-based; conditions: 0.5 h

In the case of `COCc1cc(-c2cn(C3COC3)c3cnc(NC(C)=O)cc23)nc([C@]2(OC)CCOC2)c1`, the EC50 [1] is reported as over 20 µM, the Vd [2] is reported as 1.9 L/kg and the inhibition in vivo at 600 mg/kg [3] is reported as 99%. The half-life [4] was 1.2 h, the EC50 [5] was over 20 µM and the EC50 (Mus musculus) was 0.104 µg/mL (≈ 0.23 µM).
